Counter-ions that a name gives are not always drawn.
test system: two key underarm bacteria strains; experiment: Raw material microbial inhibition, verbal summary of Table 2; format: cell-based; details: both strains of Table 2, in words
Protocol: The data in Table 2 above was generated with the following test method.
3. Microbial Strains • Staphylococcus epidermidis (clinical isolate) • Corynebacterium mucofaciens (clinical isolate)
In row A of a 96 deep well plate pipette 180 ul of sterile BHI with 1% Tween 80 as a negative growth control. All other wells receive 180 ul of inoculum. From the master plate introduce 20 ul to the corresponding row in the test plate using an 8-channel pipette. Loaded plates are placed on a plate shaker in the 37° C. incubator and incubated overnight. The next day read the O.D. 600 on a plate reader. The MIC is the last well from the right that has no bacterial growth.

| Compound | performance against the bacteria as raw materials |
| --- | --- |
| Cc1cc(CC(C)CC(C)(C)C)n(O)c(=O)c1.NCCO (stereo not shown) [piroctone olamine] | perform particularly well |
| O=C([O-])[O-].[Ca+2] [Ca Carbonate, calcium carbonate] | performing moderately well |
| C=CCCCCCCCCC(=O)N[C@@H](Cc1ccccc1)C(=O)O [Sepiwhite] | performing well |
| CC(C)=CCCC(C)=CC=O [Citral] | performing well |
| C=CCc1ccc(O)c(OC)c1 [Eugenol] | performing well |
| COC(=O)CCC(=O)OC [Dimethyl Succinate] | performing well |
| CCOC(=O)CC(O)(CC(=O)OCC)C(=O)OCC [Triethyl citrate] | performing well |
